Measurements as given in patent US9302014B2, “Cell-penetrating peptides having a central hydrophobic domain” (Medical Research Council, priority 2011, dated 2016).
Non-standard residues stand in square brackets, D forms with d. No end group written: not given here. Ahx = NCCCCCC(=O)O; βAla = NCCC(=O)O

System: dystrophin
Assay: Western blot quantification of dystrophin protein in mdx mouse muscles
Assay type: in vivo
Conditions: lead PPMO comparison; 8 week old mdx mice, 12.5 mg/kg IV, 2 weeks
Method: The RTPCR representative images (FIG. 34d) illustrate high exon skipping efficiency in all tissues analysed. This is better shown by Real Time PCR (qRT-PCR) results for the quadriceps, diaphragm and heart (FIG. 34c). The delta 23 transcript is normalised against ‘total dystrophin’ for each muscle group (n=3). […] Western blots (FIG. 34e) were performed on the tissues of each mouse and were quantified against a 50% and 10% C57BL10 control.
Four and a half month old to 5½ month old mdx mice were used in these experiments (n=3). The experiments were carried out in the Biomedical Sciences Unit, University of Oxford according to procedures authorised by the UK Home Office. […]
Control and treated muscle samples were homogenised in lysis buffer comprising 75 mM Tris-HCl (pH 6.5) and 10% Sodium Dodecyl Sulphate complemented with 5% 2-mercaptoethanol. […] Protein levels were measured by Bradford assay (Sigma) and quantified using BSA standards. […] Primary antibody was detected by binding of horseradish peroxidise-conjugated anti-mouse IgG with lumigen. Western blots were imaged (LiCOR Biosciences) and analysed using the Odyssey imaging system.
The dystrophin protein level in PPMO treated mdx muscles was quantified by western blot analysis. The density of the dystrophin band was quantified using Licor software and vinculin was used as the loading control. […]

With “Pip9d2: Pip9 series peptide (SEQ ID Nos 320-328) conjugated to PMODMD (R[Ahx]RR[βAla]RFQILY[βAla]R[Ahx]R[βAla]; also: conjugated to PMO (PMODMD))” the “dystrophin protein level by western blot (vinculin loading control)” value was “negligible dystrophin production”.
